Source: patent US9993554B2 (CENTRO NACIONAL DE INVESTIGACIONES ONCOLOGICAS (CNIO), priority 2010, dated 2018)

Each compound was assayed against T1, PI3K (p110α/p85α) (Homo sapiens, UniProt P42336) (assay: PI3K activity assay (ADP Hunter Plus)). Conditions: quantitative results, Table 4; read-out: PI3Kα IC50.
T1 construct: purchased Carna Biosciences 07CBS-0402A
T1 sequence (P42336 whole entry): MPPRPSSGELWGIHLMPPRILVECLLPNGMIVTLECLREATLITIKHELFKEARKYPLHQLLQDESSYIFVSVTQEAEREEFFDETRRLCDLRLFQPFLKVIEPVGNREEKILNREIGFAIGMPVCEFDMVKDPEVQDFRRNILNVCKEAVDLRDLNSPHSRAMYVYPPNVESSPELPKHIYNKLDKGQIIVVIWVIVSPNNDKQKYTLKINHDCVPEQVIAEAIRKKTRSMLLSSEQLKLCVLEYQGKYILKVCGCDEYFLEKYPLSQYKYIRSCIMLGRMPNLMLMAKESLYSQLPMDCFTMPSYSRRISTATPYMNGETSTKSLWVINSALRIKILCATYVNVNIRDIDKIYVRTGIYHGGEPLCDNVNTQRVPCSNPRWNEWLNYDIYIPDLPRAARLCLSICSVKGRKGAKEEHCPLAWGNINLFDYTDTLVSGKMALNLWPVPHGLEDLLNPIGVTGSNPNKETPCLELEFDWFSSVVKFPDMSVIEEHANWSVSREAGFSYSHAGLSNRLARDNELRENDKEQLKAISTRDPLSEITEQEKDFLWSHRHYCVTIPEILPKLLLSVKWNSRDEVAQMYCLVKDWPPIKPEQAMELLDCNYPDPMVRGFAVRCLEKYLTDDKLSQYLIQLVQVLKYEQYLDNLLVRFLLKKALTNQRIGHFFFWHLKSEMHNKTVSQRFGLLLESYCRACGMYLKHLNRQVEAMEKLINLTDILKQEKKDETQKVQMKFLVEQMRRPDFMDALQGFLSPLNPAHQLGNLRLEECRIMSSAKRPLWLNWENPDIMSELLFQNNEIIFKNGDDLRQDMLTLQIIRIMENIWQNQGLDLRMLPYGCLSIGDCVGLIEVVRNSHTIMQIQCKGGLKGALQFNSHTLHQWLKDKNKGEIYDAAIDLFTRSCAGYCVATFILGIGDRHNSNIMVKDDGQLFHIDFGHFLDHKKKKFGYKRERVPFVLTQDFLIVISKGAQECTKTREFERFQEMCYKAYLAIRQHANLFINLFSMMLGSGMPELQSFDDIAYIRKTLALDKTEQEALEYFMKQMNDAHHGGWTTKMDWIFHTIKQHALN
T1 sequence (P27986 whole entry partner): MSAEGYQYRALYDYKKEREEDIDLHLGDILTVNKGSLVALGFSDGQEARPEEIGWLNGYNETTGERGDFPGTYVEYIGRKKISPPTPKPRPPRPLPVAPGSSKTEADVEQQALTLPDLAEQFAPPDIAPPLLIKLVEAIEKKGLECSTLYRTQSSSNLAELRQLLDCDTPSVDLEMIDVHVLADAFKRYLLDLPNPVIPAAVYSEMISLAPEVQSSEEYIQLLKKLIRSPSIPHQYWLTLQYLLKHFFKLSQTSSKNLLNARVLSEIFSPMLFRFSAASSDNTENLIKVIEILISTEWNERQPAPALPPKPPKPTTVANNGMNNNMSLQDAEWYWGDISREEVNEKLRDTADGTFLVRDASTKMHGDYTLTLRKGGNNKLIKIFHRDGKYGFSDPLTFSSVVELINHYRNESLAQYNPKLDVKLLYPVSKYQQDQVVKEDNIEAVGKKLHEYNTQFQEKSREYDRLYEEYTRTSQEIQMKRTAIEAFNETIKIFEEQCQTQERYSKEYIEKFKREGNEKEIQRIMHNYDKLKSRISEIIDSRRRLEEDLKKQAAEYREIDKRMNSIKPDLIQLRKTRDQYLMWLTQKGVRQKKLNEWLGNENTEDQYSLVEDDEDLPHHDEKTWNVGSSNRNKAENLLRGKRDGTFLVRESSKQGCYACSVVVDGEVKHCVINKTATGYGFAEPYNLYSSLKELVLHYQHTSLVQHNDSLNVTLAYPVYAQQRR
Assay type: biochemical
Procedure: The kinase activity was measured by using the commercial ADP Hunter™ Plus assay available from DiscoveRx (#33-016), which is a homogeneous assay to measure the accumulation of ADP, a universal product of kinase activity. […] Reaction was carried out for 1 hour at 25° C. Reagent A and B were sequentially added to the wells and plates were incubated for 30 min at 37° C. […] Values were normalized against the control activity included for each enzyme (i.e., 100% PI3 kinase activity, without compound). These values were plot against the inhibitor concentration and were fit to a sigmoid dose-response curve by using the Graphad software.
For CS(=O)(=O)N1CCN(Cc2cn3cc(-c4ccc5[nH]ncc5c4)nc(N4CCOCC4)c3n2)CC1 [Compound 2-127], the IC50 was 37000 nM. CS(=O)(=O)N1CC2(CCN(Cc3cn4cc(-c5cccc6[nH]ncc56)nc(N5CCOCC5)c4n3)CC2)C1 [Compound 2-145] was tested, and the IC50 was 3000 nM.

Same assay, conditions: quantitative results; read-out: PI3Kα IC50
CS(=O)(=O)N1CCN(Cc2cn3cc(-c4ccc(N)nc4)nc(N4CCOCC4)c3n2)CC1 [Compound 2-66] was tested, and the IC50 was 169 nM. With Cc1cn2cc(-c3cccc(NS(C)(=O)=O)c3)nc(N3CCOCC3)c2n1 [Compound 2-28] the IC50 was 50000 nM. In the case of CS(=O)(=O)N1CCN(Cc2cn3cc(-c4cnc5[nH]ccc5c4)nc(N4CCOCC4)c3n2)CC1 [Compound 2-75], the IC50 is reported as 113 nM. With CS(=O)(=O)N1CCN(Cc2cn3cc(-c4ccc(C(N)=O)cc4)nc(N4CCOCC4)c3n2)CC1 [Compound 2-68] the IC50 was 11000 nM. CS(=O)(=O)N1C2CCC1CN(Cc1cn3cc(-c4cnc(N)nc4)nc(N4CCOCC4)c3n1)C2 [Compound 2-228] was tested, and the IC50 was 108 nM. With CNC(=O)Nc1ccc(-c2cn3cc(CN4CCN(S(C)(=O)=O)CC4)nc3c(N3CCOCC3)n2)cc1 [Compound 2-82] the IC50 was 158 nM. Cc1cn2cc(-c3ccc4cc[nH]c4c3)nc(N3CCOCC3)c2n1 [Compound 2-25] was tested, and the IC50 was 10000 nM. COc1ccc(-c2cn3cc(CN4CCN(S(C)(=O)=O)CC4)nc3c(N3CCOCC3)n2)cn1 [Compound 2-61] gave an IC50 of 4500 nM.

Same assay, conditions: semi-quantitative results; read-out: PI3Kα IC50 (semi-quantitative class)
CS(=O)(=O)N1CCN(C(=O)c2cn3cc(-c4cccc5[nH]ncc45)nc(N4CCOCC4)c3n2)CC1 [Compound 2-16] gave an IC50 of 100 to 1000 nM. For Cc1nc2c(N3CCOCC3)nc(-c3cccc4[nH]ncc34)cn2c1C1CCN(C)CC1 [Compound 2-58], the IC50 was 100 to 1000 nM. With CS(=O)(=O)N1CCN(c2cnc3c(N4CCOCC4)nc(-c4cccc5[nH]ncc45)cn23)CC1 [Compound 2-41] the IC50 was 100 to 1000 nM. Work on Cc1cn2c(Cl)c(-c3cccc(O)c3)nc(N3CCOCC3)c2n1 [Compound 2-49] yielded an IC50 of 100 to 1000 nM. In the case of COc1ncc(-c2cn3cc(CN4CCN(S(C)(=O)=O)CC4)nc3c(N3CCOCC3)n2)cn1 [Compound 2-67], the IC50 is reported as 100 to 1000 nM. Compound O=C(c1cn2cc(-c3cccc4[nH]ncc34)nc(N3CCOCC3)c2n1)N1CCNCC1 [Compound 2-18] has an IC50 of 100 to 1000 nM. With Oc1cccc(-c2cn3c(N4CCNCC4)cnc3c(N3CCOCC3)n2)c1 [Compound 2-40] the IC50 was 100 to 1000 nM. For CN1CCN(c2cnc3c(N4CCOCC4)nc(-c4cccc5[nH]ncc45)cn23)CC1 [Compound 2-38], the IC50 was 100 to 1000 nM. In the case of CS(=O)(=O)N1CCN(Cc2cn3c(Cl)c(-c4cccc5[nH]ncc45)nc(N4CCOCC4)c3n2)CC1 [Compound 2-60], the IC50 is reported as 100 to 1000 nM. CN1CCN(c2cnc3c(N4CCOCC4)nc(-c4cccc(O)c4)cn23)CC1 [Compound 2-37] gave an IC50 of 100 to 1000 nM. COc1cncc(-c2cn3cc(CN4CCN(S(C)(=O)=O)CC4)nc3c(N3CCOCC3)n2)c1 [Compound 2-65] was tested, and the IC50 was > 1000 nM. In the case of CS(=O)(=O)N1CCN(c2cnc3c(N4CCOCC4)nc(-c4cccc(O)c4)cn23)CC1 [Compound 2-39], the IC50 is reported as 100 to 1000 nM.

What follows are compounds tested on phospho-Ser-473-Akt (assay: AKT phosphorylation inhibition, Western blot cell assay). Conditions: Homo sapiens; cell assay procedure; read-out: IC50 of AKT Phosphorylation Inhibition, p-AKT cell.
Assay type: cell-based
Procedure: The cell lines were obtained from the American Type Culture Collection (ATCC). U2OS (human osteosarcoma) was cultured in Dulbecco's modified Eagle's medium (DMEM). PC3 (human prostate carcinoma), MCF7 (human breast cardinoma), HCT116 (human colon carcinoma), 768-0 (human neuroblastoma), U251 (human glyoblastoma) were grown in RPMI. All media were supplemented with 10% fetal bovine serum (FBS) (Sigma) and antibiotics-antimycotics. Cell were maintained in a humidified incubator at 37° C. with 5% CO2 and passaged when confluent using trypsin/EDTA.
Subconfluent cells were incubated under different conditions and washed twice with TBS prior to lysis. Lysis buffer was added containing 50 mM Tris HCl, 150 mM NaCl, 1% NP-40, 2 mM Na3VO4, 100 mM NaF, 20 mM Na4P2O7 and protease inhibitor cocktail (Roche Molecular Biochemicals). The proteins were resolved on 10% SDS-PAGE and transferred to nitrocellulose membrane (Schleicher & Schuell, Dassel, Germany). The membranes were incubated overnight at 4° C. with antibodies specific for Akt, phospho-Ser-473-Akt (Cell Signaling Technology) and α-tubulin (Sigma), they were washed and then incubated with IRDye800 conjugated anti-mouse and Alexa Fluor 680 goat anti-rabbit IgG secondary antibodies. The bands were visualized using an Odyssey infrared imaging system (Li-Cor Biosciences).
With CS(=O)(=O)N1CCN(Cc2cn3cc(-c4ccc(N)nc4)nc(N4CCOCC4)c3n2)CC1 [Compound 2-66] the IC50 was 14 nM. Compound CS(=O)(=O)N1CCN(C(=O)c2cn3cc(-c4cccc5[nH]ncc45)nc(N4CCOCC4)c3n2)CC1 [Compound 2-16] has an IC50 of 503 nM. Compound CS(=O)(=O)N1CCN(Cc2cn3cc(-c4cnc5[nH]ccc5c4)nc(N4CCOCC4)c3n2)CC1 [Compound 2-75] has an IC50 of 77 nM. For COc1ncc(-c2cn3cc(CN4CCN(S(C)(=O)=O)CC4)nc3c(N3CCOCC3)n2)cn1 [Compound 2-67], the IC50 was 198 nM.
